According to patent publication US9884839B2, “Inhibitors of 17Beta-hydroxysteroid dehydrogenases type 1 and type 2” (ElexoPharm GmbH, priority 2014, dated 2018):
Where two headings read alike, the source gives them in different places.

Tests used:
[1] = human liver S9, 1 mg/mL; unit not given
human 17β-HSD1 = biological target: T1, human 17β-HSD1 (Homo sapiens, UniProt P14061); assay: Inhibition of human 17β-HSD1 (conversion of [3H]-E1 to E2, HPLC radioflow detection); format: biochemical; settings: read-out: IC50 [nM] h17β-HSD1
T1 construct: For the partial purification of 17β-HSD1, the cytosolic fraction was precipitated with ammonium sulfate; from tissue; host or cells: human placenta, cytosolic fraction, ammonium sulfate precipitate
T1 sequence (P14061 1-328): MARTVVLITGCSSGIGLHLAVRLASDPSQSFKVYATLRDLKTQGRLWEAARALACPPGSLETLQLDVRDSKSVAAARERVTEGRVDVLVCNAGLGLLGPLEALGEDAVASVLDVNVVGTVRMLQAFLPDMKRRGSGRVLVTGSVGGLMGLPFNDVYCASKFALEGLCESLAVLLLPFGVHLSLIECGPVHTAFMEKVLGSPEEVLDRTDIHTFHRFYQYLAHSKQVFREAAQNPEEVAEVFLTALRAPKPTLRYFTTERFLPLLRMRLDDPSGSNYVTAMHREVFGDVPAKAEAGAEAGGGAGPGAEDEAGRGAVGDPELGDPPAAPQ

rat 17β-HSD2 = biological target: T2, rat 17β-HSD2 (Rattus norvegicus, UniProt Q62730); assay: Inhibition of rat 17β-HSD2 (liver microsomal fraction); format: biochemical; settings: read-out: % Inhibition r17β-HSD2
T2 construct: The pellet fractions containing the microsomal 17β-HSD2 were used for the determination of E1 formation; from tissue; host or cells: rat liver, microsomal fraction
T2 sequence (Q62730 1-381): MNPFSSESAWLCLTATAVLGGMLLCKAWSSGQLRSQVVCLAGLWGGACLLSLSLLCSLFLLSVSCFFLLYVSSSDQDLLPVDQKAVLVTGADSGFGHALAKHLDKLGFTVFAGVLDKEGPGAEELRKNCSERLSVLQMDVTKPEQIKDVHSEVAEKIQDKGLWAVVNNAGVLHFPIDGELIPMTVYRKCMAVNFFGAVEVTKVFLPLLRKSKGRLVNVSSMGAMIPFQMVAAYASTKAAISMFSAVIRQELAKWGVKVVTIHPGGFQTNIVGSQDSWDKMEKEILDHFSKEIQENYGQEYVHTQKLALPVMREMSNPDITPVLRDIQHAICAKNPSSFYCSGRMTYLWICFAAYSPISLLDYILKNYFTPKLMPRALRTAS

rat 17β-HSD1 = biological target: T3, rat 17β-HSD1 (Rattus norvegicus, UniProt P51657); assay: Inhibition of rat 17β-HSD1 (recombinant, HEK293 lysate); format: biochemical; settings: read-out: % Inhibition r17β-HSD1; for inhibition at […]: Cmpd conc. 250 nM
T3 construct: made in house; host or cells: HEK293 cells, transient transfection; 1,000 g supernatant of the cell lysate
T3 sequence (P51657 1-344): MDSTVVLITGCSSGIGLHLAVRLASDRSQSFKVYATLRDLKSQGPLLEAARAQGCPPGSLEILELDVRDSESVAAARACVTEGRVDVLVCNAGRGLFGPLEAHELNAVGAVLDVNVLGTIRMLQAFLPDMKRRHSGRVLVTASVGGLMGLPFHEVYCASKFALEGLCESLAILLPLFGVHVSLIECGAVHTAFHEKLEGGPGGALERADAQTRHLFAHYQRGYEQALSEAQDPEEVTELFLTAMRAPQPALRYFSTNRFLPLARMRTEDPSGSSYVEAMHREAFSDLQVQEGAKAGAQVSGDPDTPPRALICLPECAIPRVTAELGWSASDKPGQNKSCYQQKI

mouse 17β-HSD2 = biological target: T4, mouse 17β-HSD2 (Mus musculus, UniProt P51658); assay: Inhibition of mouse 17β-HSD2 (liver microsomal fraction); format: biochemical; settings: for inhibition at 1 µM: read-out: Inhibition @ 1 μM m17β-HSD2; for IC50: read-out: IC50 m17β-HSD2
T4 construct: The pellet fractions containing the microsomal 17β-HSD2 were used for the determination of E1 formation; from tissue; host or cells: mouse liver, microsomal fraction
T4 sequence (P51658 1-381): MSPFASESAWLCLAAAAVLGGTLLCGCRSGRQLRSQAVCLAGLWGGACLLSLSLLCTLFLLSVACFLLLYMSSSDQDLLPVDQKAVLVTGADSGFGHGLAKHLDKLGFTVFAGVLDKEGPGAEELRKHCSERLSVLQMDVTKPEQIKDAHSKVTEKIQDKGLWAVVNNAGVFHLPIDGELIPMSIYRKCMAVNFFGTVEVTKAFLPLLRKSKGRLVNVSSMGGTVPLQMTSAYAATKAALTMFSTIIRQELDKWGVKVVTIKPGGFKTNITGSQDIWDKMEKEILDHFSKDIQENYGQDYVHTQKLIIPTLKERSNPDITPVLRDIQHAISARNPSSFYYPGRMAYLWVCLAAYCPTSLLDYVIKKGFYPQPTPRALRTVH

in vitro = settings: human, pooled human liver S9 fraction
human 17β-HSD2 = biological target: T5, human 17β-HSD2 (Homo sapiens, UniProt P37059); assay: Inhibition of human 17β-HSD2 (conversion of [3H]-E2 to E1); format: biochemical; settings: read-out: IC50 [nM] h17β-HSD2
T5 construct: 17β-HSD2 was obtained from the microsomal fraction; from tissue; host or cells: human placenta, microsomal fraction
T5 sequence (P37059 1-387): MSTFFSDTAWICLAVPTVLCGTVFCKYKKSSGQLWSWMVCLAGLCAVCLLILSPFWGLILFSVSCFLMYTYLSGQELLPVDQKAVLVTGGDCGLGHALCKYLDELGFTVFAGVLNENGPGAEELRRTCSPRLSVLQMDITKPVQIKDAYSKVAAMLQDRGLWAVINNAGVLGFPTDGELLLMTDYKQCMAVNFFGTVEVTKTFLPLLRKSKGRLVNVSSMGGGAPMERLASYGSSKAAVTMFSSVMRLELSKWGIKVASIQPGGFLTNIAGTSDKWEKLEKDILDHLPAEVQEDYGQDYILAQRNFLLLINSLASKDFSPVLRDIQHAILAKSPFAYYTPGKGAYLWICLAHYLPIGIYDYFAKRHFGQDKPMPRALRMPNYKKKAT

mouse 17β-HSD1 = biological target: T6, mouse 17β-HSD1 (Mus musculus, UniProt P51656); assay: Inhibition of mouse 17β-HSD1 (recombinant, HEK293 lysate); format: biochemical
T6 construct: made in house; host or cells: HEK293 cells, transient transfection; 1,000 g supernatant of the cell lysate
T6 sequence (P51656 1-344): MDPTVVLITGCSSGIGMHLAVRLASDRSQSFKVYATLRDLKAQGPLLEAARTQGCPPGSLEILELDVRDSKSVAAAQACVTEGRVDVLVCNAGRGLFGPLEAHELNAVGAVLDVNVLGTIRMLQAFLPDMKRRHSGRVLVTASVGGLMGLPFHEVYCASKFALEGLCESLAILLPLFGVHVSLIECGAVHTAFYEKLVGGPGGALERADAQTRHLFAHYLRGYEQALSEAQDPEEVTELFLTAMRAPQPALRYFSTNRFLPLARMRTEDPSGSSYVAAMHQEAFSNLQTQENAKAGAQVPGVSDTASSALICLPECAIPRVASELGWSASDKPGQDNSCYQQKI

[2] = human placental cytosolic enzyme, E1 500 nM, NADH, Tables 1, 4-11
[3] = read-out: Inhibition @ 1 μM m17β-HSD1
[4] = Tables 4 and 6, no % sign and concentration not given, Table 1 lists these compounds as inhibition @ 1 μM, read-out: IC50 [nM] or % inhibition m17β-HSD1 (bare number, kind not marked)

| Compound | CLint [1] | IC50 (human 17β-HSD1; [2]) [nM] | inhibition at […] (rat 17β-HSD2) [%] | inhibition at […] (rat 17β-HSD1) [%] | inhibition at 1 µM (mouse 17β-HSD2) [%] | half-life at 1 µM (in vitro) [min] | IC50 (human 17β-HSD2) [nM] | inhibition at 1 µM (mouse 17β-HSD1; [3]) [%] | IC50 (human 17β-HSD1) [nM] | IC50 (mouse 17β-HSD1; recombinant mouse enzyme, E1 10 nM, NADPH, read-out: IC50 m17β-HSD1) [nM] | inhibition at 0.5 µM (rat 17β-HSD2) [%] | inhibition at 0.5 µM (rat 17β-HSD1; Cmpd conc. 500 nM) [%] | IC50 (mouse 17β-HSD2) [nM] | inhibition at 1 µM (mouse 17β-HSD1; [4]) [%] |
| --- | --- | --- | --- | --- | --- | --- | --- | --- | --- | --- | --- | --- | --- | --- |
| COc1c(C)cc(-c2ccc(C(=O)c3c(F)ccc(O)c3F)s2)cc1C [Compound 16, (2,6-Difluoro-3-hydroxy-phenyl)-[5-(4-methoxy-3,5-dimethyl-phenyl)-thiophen-2-yl]-methanone] | 81.3 | 0.9 | 27 | 39 | 55 | 8.5 | 18 | 59 | – | – | – | – | – | – |
| Cc1cc(-c2ccc(C(=O)c3c(F)ccc(O)c3F)s2)cc(C)c1O [Compound 24, (2,6-Difluoro-3-hydroxy-phenyl)-[5-(4-hydroxy-3,5-dimethyl-phenyl)-thiophen-2-yl]-methanone] | 272.7 | – | 35 | 63 | 76 | 2.6 | 7 | – | 0.4 | 397 | – | – | – | – |
| COc1c(Cl)cc(-c2ccc(C(=O)c3c(F)ccc(O)c3F)s2)cc1CN1CCNCC1 [Compound 30, [5-(3-Chloro-4-methoxy-5-piperazin-1-ylmethyl-phenyl)-thiophen-2-yl]-(2,6-difluoro-3-hydroxy-phenyl)-methanone] | 106.8 | 4.7 | – | – | 41 | 6.5 | 26 | 25 | – | – | 55 | 51 | – | – |
| Nc1cccc(-c2ccc(C(=O)c3cc(F)c(F)c(O)c3F)s2)c1 [Compound 35, [5-(3-Aminophenyl)thiophen-2-yl](2,4,5-trifluoro-3-hydroxyphenyl)methanone] | – | 49 | 100 | 46 | 80 | – | 5 | 9 | – | – | – | – | 177 | 13 |
| O=C(c1ccc(-c2ccc(F)cc2F)s1)c1cc(F)c(F)c(O)c1F [Compound 40, [5-(2,4-Difluoro-phenyl)-thiophen-2-yl]-(2,4,5-trifluoro-3-hydroxy-phenyl)-methanone] | – | – | 86 | 58 | – | – | 1.4 | 28 | 7.2 | – | – | – | 326 | 27.5 |
